Experimental data published in patent US20160002204A1 (Board of Regents, The University of Texas System, priority 2014, published 2016).

Key:
[1] = target: T1, GLS1 (purified recombinant human GAC) (Homo sapiens, UniProt O94925); test: GLS1 enzymatic activity assay (dual-coupled, Amplex UltraRed/resorufin); format: biochemical
T1 sequence (O94925 55-598 isoform O94925-3 limits assumed): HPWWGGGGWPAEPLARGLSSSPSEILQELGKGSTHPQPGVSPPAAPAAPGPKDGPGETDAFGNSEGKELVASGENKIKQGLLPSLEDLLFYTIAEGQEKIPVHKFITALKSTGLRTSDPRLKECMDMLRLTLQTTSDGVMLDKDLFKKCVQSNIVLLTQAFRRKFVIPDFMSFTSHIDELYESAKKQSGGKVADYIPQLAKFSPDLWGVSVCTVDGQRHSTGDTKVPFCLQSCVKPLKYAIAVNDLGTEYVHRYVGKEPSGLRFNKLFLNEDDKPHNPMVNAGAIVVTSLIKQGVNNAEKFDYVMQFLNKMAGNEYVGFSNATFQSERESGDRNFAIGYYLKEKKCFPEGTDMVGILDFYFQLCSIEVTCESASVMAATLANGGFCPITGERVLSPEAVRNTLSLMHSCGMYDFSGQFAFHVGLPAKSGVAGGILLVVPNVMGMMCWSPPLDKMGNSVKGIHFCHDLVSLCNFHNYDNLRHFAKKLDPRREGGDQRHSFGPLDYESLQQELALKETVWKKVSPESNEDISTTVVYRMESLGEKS
Procedure, shortened: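 In this coupled fluorometric format, phosphate-activated GAC (2 nM, 50 mM phosphate) is pre-exposed to compound for 10 min before 1 mM glutamine addition. Product is tracked as resorufin (530/590 nm) over time or at 20 min, and potency is derived by logistic fitting.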

[2] = test system: A549 cells; test: A549 proliferation (viability) assay, Cell Titer Fluor, 72 hours; format: cell-based; details: Homo sapiens
Procedure, shortened: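 Fluorescence read-out (Cell Titer Fluor, 30 min at 37 °C after reagent) after 72 h compound exposure of A549 cells; EC50 by four-parameter logistic curve fit. Cells: 1000/well, RPMI 1640 + 10% dialyzed FBS, 0.5% DMSO final.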

| IC50 [1] [nM] | EC50 [2] [nM] | SMILES |
| --- | --- | --- |
| < 100 | 500 to 5000 | O=C(CC1CCC(O)CC1)Nc1ccn(CCCCn2cc(C(=O)NCc3cccc(OC(F)(F)F)c3)nn2)c(=O)c1 (stereo not drawn) [Example 208, 1-(4-{4-[2-(4-hydroxycyclohexyl)acetamido]-2-oxo-1,2-dihydropyridin-1-yl}butyl)-N-{[3-(trifluoromethoxy)phenyl]methyl}-1H-1,2,3-triazole-4-carboxamide] |
| < 100 | 500 to 5000 | CNC1CCC(CC(=O)Nc2ccn(CCCCn3cc(C(=O)NCc4cccc(OC(F)(F)F)c4)nn3)c(=O)c2)CC1 (stereo not drawn) [Example 209, 1-[4-(4-{2-[4-(methylamino)cyclohexyl]acetamido}-2-oxo-1,2-dihydropyridin-1-yl)butyl]-N-{[3-(trifluoromethoxy)phenyl]methyl}-1H-1,2,3-triazole-4-carboxamide] |
| < 100 | < 100 | O=C(CC1CCCC1)Nc1ccn(CCCCn2cc(C(=O)NCc3cccc(OC(F)(F)F)c3)nn2)c(=O)c1 [Example 210, 1-{4-[4-(2-cyclopentylacetamido)-2-oxo-1,2-dihydropyridin-1-yl]butyl}-N-{[3-(trifluoromethoxy)phenyl]methyl}-1H-1,2,3-triazole-4-carboxamide] |
| < 100 | 100 to 500 | CC(C)(C)OC(=O)N[C@H]1CCC[C@H](C(=O)Nc2ccn(CCCCn3cc(C(=O)NCc4cccc(OC(F)(F)F)c4)nn3)c(=O)c2)C1 [Example 211, tert-butyl N-[(1S,3S)-3-[(2-oxo-1-{4-[4-({[3-(trifluoro-methoxy)phenyl]methyl}carbamoyl)-1H-1,2,3-triazol-1-yl]butyl}-1,2-dihydropyridin-4-yl)carbamoyl]cyclohexyl]carbamate] |
| < 100 | < 100 | O=C(CC1CCCCC1)Nc1ccn(CCC(F)Cn2cc(C(=O)NCc3cccc(OC(F)(F)F)c3)nn2)c(=O)c1F (stereo not drawn) [Example 212, 1-{4-[4-(2-cyclohexylacetamido)-3-fluoro-2-oxo-1,2-dihydropyridin-1-yl]-2-fluorobutyl}-N-{[3-(trifluoromethoxy)phenyl]methyl}-1H-1,2,3-triazole-4-carboxamide] |
| 100 to 500 | 500 to 5000 | O=C(CN1CCOCC1)Nc1ccn(CCC(F)Cn2cc(C(=O)NCc3cccc(OC(F)(F)F)c3)nn2)c(=O)c1 (stereo not drawn) [Example 213, 1-(2-fluoro-4-{4-[2-(morpholin-4-yl)acetamido]-2-oxo-1,2-dihydropyridin-1-yl}butyl)-N-{[3-(trifluoromethoxy)phenyl]methyl}-1H-1,2,3-triazole-4-carboxamide] |
| < 100 | 100 to 500 | O=C(CC1CCC1)Nc1ccn(CCC(F)Cn2cc(C(=O)NCc3cc(Cl)ccc3F)nn2)c(=O)c1 (stereo not drawn) [Example 214, N-[(5-chloro-2-fluorophenyl)methyl]-1-{4-[4-(2-cyclobutylacetamido)-2-oxo-1,2-dihydropyridin-1-yl]-2-fluorobutyl}-1H-1,2,3-triazole-4-carboxamide] |
| < 100 | 100 to 500 | O=C(CC1CCCCO1)Nc1ccn(CCC(F)Cn2cc(C(=O)NCc3cc(Cl)ccc3F)nn2)c(=O)c1 (stereo not drawn) [Example 215, N-[(5-chloro-2-fluorophenyl)methyl]-1-(2-fluoro-4-{4-[2-(oxan-2-yl)acetamido]-2-oxo-1,2-dihydropyridin-1-yl}butyl)-1H-1,2,3-triazole-4-carboxamide] |
| < 100 | 100 to 500 | O=C(Cc1ccccc1)Nc1ccn(CCC(F)Cn2cc(C(=O)NCc3cc(Cl)ccc3F)nn2)c(=O)c1 (stereo not drawn) [Example 216, N-[(5-chloro-2-fluorophenyl)methyl]-1-{2-fluoro-4-[2-oxo-4-(2-phenylacetamido)-1,2-dihydropyridin-1-yl]butyl}-1H-1,2,3-triazole-4-carboxamide] |
| < 100 | < 100 | O=C(CC1CCC1)Nc1ccn(CCC(F)Cn2cc(C(=O)NCc3cccc(OC(F)(F)F)c3)nn2)c(=O)c1 (stereo not drawn) [Example 217, l-{4-[4-(2-cyclobutylacetamido)-2-oxo-1,2-dihydropyridin-1-yl]-2-fluorobutyl}-N-{[3-(trifluoromethoxy)phenyl]methyl}-1H-1,2,3-triazole-4-carboxamide] |
| < 100 | < 100 | CC(C)(C)OC(=O)N1CCC(CC(=O)Nc2ccn(CCC(F)Cn3cc(C(=O)NCc4cccc(OC(F)(F)F)c4)nn3)c(=O)c2)CC1 (stereo not drawn) [Example 219, tert-butyl 4-{[(1-{3-fluoro-4-[4-({[3-(trifluoromethoxy)phenyl]methyl}carbamoyl)-1H-1,2,3-triazol-1-yl]butyl}-2-oxo-1,2-dihydropyridin-4-yl)carbamoyl]methyl}piperidine-1-carboxylate] |
| < 100 | < 100 | O=C(CC1CCCC1)Nc1ccn(CCC(F)Cn2cc(C(=O)NCc3cccc(OC(F)(F)F)c3)nn2)c(=O)c1 (stereo not drawn) [Example 220, 1-{4-[4-(2-cyclopentylacetamido)-2-oxo-1,2-dihydropyridin-1-yl]-2-fluorobutyl}-N-{[3-(trifluoromethoxy)phenyl]methyl}-1H-1,2,3-triazole-4-carboxamide] |
| < 100 | < 100 | CC(C)(C)OC(=O)N1CCC(CC(=O)Nc2ccn(CCC(F)Cn3cc(C(=O)NCc4cccc(OC(F)(F)F)c4)nn3)c(=O)c2)C1 (stereo not drawn) [Example 221, tert-butyl 3-{[(1-{3-fluoro-4-[4-({[3-(trifluoromethoxy)phenyl]methyl}carbamoyl)-1H-1,2,3-triazol-1-yl]butyl}-2-oxo-1,2-dihydropyridin-4-yl)carbamoyl]methyl}pyrrolidine-1-carboxylate] |
| < 100 | 100 to 500 | CC(C)(C)OC(=O)NCc1cccc(CC(=O)Nc2ccn(CCC(F)Cn3cc(C(=O)NCc4cccc(OC(F)(F)F)c4)nn3)c(=O)c2)c1 (stereo not drawn) [Example 222, tert-butyl N-[(3-{[(1-{3-fluoro-4-[4-({[3-(trifluoro-methoxy)phenyl]methyl}carbamoyl)-1H-1,2,3-triazol-1-yl]butyl}-2-oxo-1,2-dihydropyridin-4-yl)carbamoyl]methyl}phenyl)methyl] carbamate] |
| < 100 | < 100 | O=C(NCc1cccc(OC(F)(F)F)c1)c1cn(CC(F)CCn2ccc(NC(=O)[C@H](O)c3ccccc3)cc2=O)nn1 (stereo partly drawn) [Example 223, 1-(2-fluoro-4-{4-[(2R)-2-hydroxy-2-phenylacetamido]-2-oxo-1,2-dihydropyridin-1-yl}butyl)-N-{[3-(trifluoromethoxy)phenyl]methyl}-1H-1,2,3-triazole-4-carboxamide] |
| < 100 | < 100 | O=C(NCc1cccc(OC(F)(F)F)c1)c1cn(CC(F)CCn2ccc(NC(=O)[C@@H](O)c3ccccc3)cc2=O)nn1 (stereo partly drawn) [Example 224, 1-(2-fluoro-4-{4-[(2S)-2-hydroxy-2-phenylacetamido]-2-oxo-1,2-dihydropyridin-1-yl}butyl)-N-{[3-(trifluoromethoxy)phenyl]methyl}-1H-1,2,3-triazole-4-carboxamide] |
| < 100 | < 100 | CC(C)(C)OC(=O)Nc1ccn(CCC(F)Cn2cc(C(=O)NCc3cccc(OC(F)(F)F)c3)nn2)c(=O)c1F (stereo not drawn) [Example 226, tert-butyl N-(3-fluoro-1-{3-fluoro-4-[4-({[3-(trifluoro-methoxy)phenyl]methyl}carbamoyl)-1H-1,2,3-triazol-1-yl]butyl}-2-oxo-1,2-dihydropyridin-4-yl)carbamate] |
| < 100 | 100 to 500 | O=C(CN1CCC(F)C1)Nc1ccn(CCC(F)Cn2cc(C(=O)NCc3cccc(OC(F)(F)F)c3)nn2)c(=O)c1 (stereo not drawn) [Example 227, 1-(2-fluoro-4-{4-[2-(3-fluoropyrrolidin-1-yl)acetamido]-2-oxo-1,2-dihydropyridin-1-yl}butyl)-N-{[3-(trifluoromethoxy)phenyl]methyl}-1H-1,2,3-triazole-4-carboxamide] |
| < 100 | < 100 | O=C(CN1CCSCC1)Nc1ccn(CCC(F)Cn2cc(C(=O)NCc3cccc(OC(F)(F)F)c3)nn2)c(=O)c1 (stereo not drawn) [Example 228, 1-(2-fluoro-4-{2-oxo-4-[2-(thiomorpholin-4-yl)acetamido]-1,2-dihydropyridin-1-yl}butyl)-N-{[3-(trifluoromethoxy)phenyl]methyl}-1H-1,2,3-triazole-4-carboxamide] |
| 100 to 500 | 500 to 5000 | CC(=O)N1CCN(CC(=O)Nc2ccn(CCC(F)Cn3cc(C(=O)NCc4cccc(OC(F)(F)F)c4)nn3)c(=O)c2)CC1 (stereo not drawn) [Example 229, 1-(4-{4-[2-(4-acetylpiperazin-1-yl)acetamido]-2-oxo-1,2-dihydropyridin-1-yl}-2-fluorobutyl)-N-{[3-(trifluoromethoxy)phenyl]methyl}-1H-1,2,3-triazole-4-carboxamide] |
| 100 to 500 | > 5000 | O=C(CN1CCS(=O)(=O)CC1)Nc1ccn(CCC(F)Cn2cc(C(=O)NCc3cccc(OC(F)(F)F)c3)nn2)c(=O)c1 (stereo not drawn) [Example 231, 1-(4-{4-[2-(1,1-dioxo-1$l^6,4-thiomorpholin-4-yl)acetamido]-2-oxo-1,2-dihydropyridin-1-yl}-2-fluorobutyl)-N-{[3-(trifluoromethoxy)phenyl]methyl}-1H-1,2,3-triazole-4-carboxamide] |
